Laboratory results: patent US20100210682A1, “Repeated Dosing of TRPV1 Antagonists” (ABBOTT LABORATORIES, priority 2009, published 2010)

Key:
[1] = system: capsaicin-induced flinching behaviors; test: Capsaicin-induced acute pain (flinching) in rats; format: in vivo; conditions: rat, acute dosing, 2.5 μg capsaicin into hind paw
Protocol: Rats were placed in individual observation cages. Following an acclimation period of 30 min, the test compound was administered. Two hours later, 2.5 μg of capsaicin in a 10 μL solution of 10% ethanol/90% hydroxypropyl-b-cyclodextrin was injected subcutaneously into the dorsal aspect of the right hind paw. The observation cage was then suspended above mirrors in order to facilitate observation of the rat. […] The number of flinching behaviors of the injured paw was recorded during the 5 minutes observation period. Compound A was dissolved in 100% polyethylene glycol (PEG 400) for oral administration in a 2 mL/kg injection volume. Compounds B, C, and D were dissolved in 10% ethanol, 20% Tween 80 and 70% polyethylene glycol-400 for oral administration in a 2 mL/kg injection volume. All compounds were dosed orally (p.o.) 60 minutes before behavioral testing.

[2] = system: post-operative thermal hyperalgesia; test: Post-operative pain model in rats (skin incision), thermal hyperalgesia; format: in vivo; conditions: po; rat, p.o., acute dosing, 24 h post-injury; read-out: ED50, reversal of thermal hyperalgesia
Protocol: The response to acute thermal stimulation was determined using a commercially available paw thermal stimulator (UARDG, University of California, San Diego, Calif.). Rats were placed individually in Plexiglass cubicles mounted on a glass surface maintained at 30° C., and allowed a 30 min habituation period. A thermal stimulus, in the form of radiant heat emitted from a focused projection bulb, was then applied to the plantar surface of each hind paw. In each test session, each rat was tested in three sequential trials at approximately 5 min intervals. Paw withdrawal latencies (PWLs) were calculated as the mean of the two shortest latencies. An assay cut-off was set at 20.5 s.
As described by Brennan et al. [Brennan T J, Vandermeulen E P, Gebhart G F. Characterization of a rat model of incisional pain. Pain 1996; 64:493-501], a 1 cm longitudinal incision was made through the skin and fascia of the plantar aspect of the foot, starting 0.5 cm from the proximal edge of the heel and extending toward the toes. The plantaris muscle was elevated and incised longitudinally with origin and insertion of the muscle remaining intact. The skin was then closed with two 5-0 nylon mattress sutures. After surgery, the animals were allowed to recover and housed individually with soft bedding. Animals were tested for mechanical allodynia using von Frey hairs and for thermal hyperalgesia as described above. […]

CC(C)(C)c1ccc2c(c1)CC[C@H]2NC(=O)Nc1cccc2[nH]ncc12 [Compound A, N-[(1R)-5-tert-butyl-2,3-dihydro-1H-inden-1-yl]-N′-1H-indazol-4-ylurea]
capsaicin-induced flinching behaviors [1]: dose-dependently prevented
ED50 [2]: 40 µmol/kg
